Assay results reported in PubChem BioAssay AID1963975 (Molecular Pharmacology Branch, DTP, NCI, 2024).

Tested on: 624824-186-R-J2-PDC multicell spheroids, viability
Experiment: Anticancer human tumor 624824-186-R-J2-PDC patient-derived colon adenocarcinoma cell line growth inhibition [PI3K]
Conditions: for viability, T/C: stronger effect = lower value
Text: Combinatorial screen of targeted agents with the PI3K inhibitors inavolisib, alpelisib, duvelisib, and copanlisib in multi-cell type tumor spheroids
A high-throughput screen of multi-cell type tumor spheroids was designed to identify active combinations of targeted small molecules and PI3K pathway inhibitors. Complex spheroids include a stromal component modeled by human endothelial cells (HUVEC) and fibroblasts modeled by human mesenchymal stem cells (MSCs). The concentration ranges selected for each drug and investigational agent were based upon clinically achievable concentrations if the clinical Cmax of the agent was known.
Compounds. The drugs and investigational agents: inavolisib (NSC800729), alpelisib (NSC765974), duvelisib (NSC772469), copanlisib (NSC816437), ipatasertib (NSC767898), afuresertib (NSC778305), talazoparib (NSC767125), sapanisertib (NSC764658), selumetinib (NSC741078), tovorafenib (DAY101, NSC766906), vemurafenib (NSC761431), ravoxertinib (NSC781343), sotorasib (NSC818433), MRTX1133 (NSC 836407), abemaciclib (NSC 768073), palbociclib (NSC758247), venetoclax (NSC 766270), SY5609 (NSC837396), enzalutamide (NSC755605), and darolutamide (NSC825331), were obtained from the National Cancer Institute (NCI) Developmental Therapeutics Program Chemical Repository. The FDA-approved anticancer drug set is available from the NCI Developmental Therapeutics Program. […] The stock solutions were prepared in dimethyl sulfoxide (DMSO, Sigma-Aldrich, St. Louis, MO, cat. D2650) at 800-fold the tested concentration and stored at -70 degrees C prior to their use. All drugs and investigational agents were tested over a range starting from a high concentration at or near the clinical Cmax and decreasing in half-log increments. If the clinical Cmax for an agent had not been determined, the highest concentration tested was 10 microM.
Cell Culture. All cells were maintained in an incubator at 37 degrees C and 5% CO2 with 95% humidity. The PDC lines were cultured according to standard operating procedures established by the NCI PDMR (https://pdmr.cancer.gov/sops/default.htm). All PDCs were thawed and cultured in Matrigel-coated flasks prepared with a working solution of 1X Ham's F-12 nutrient mix, without supplementation (Invitrogen, Waltham, MA, cat. 11765054), 100 U/mL penicillin-streptomycin (Invitrogen, cat. 15140122), and 2.5% Matrigel (Corning Inc., Corning, NY, cat. 354248) for the first three passages. The 354836-022-R-J1-PDC, 475296-252-R-J1-PDC, and 997726-040-R-J2-PDC lines were cultured in 6A media, which includes advanced DMEM/F-12 (Thermo Fisher Scientific, cat. 12634028), 10 mM HEPES (Thermo Fisher Scientific, cat. 15630080), 1X GlutaMAX supplement (Thermo Fisher Scientific, cat. 35050061), 0.1 mg/mL primocin (InvivoGen, San Diego, CA, cat. ant-pm-2), 10% defined fetal bovine serum, heat inactivated (HyClone Laboratories Inc., Logan, UT, cat. SH30070.03HI), 50% L-WRN conditioned media (ATCC, cat. CRL-3276), 1.25 mM N-Acetyl-L-cysteine (Sigma-Aldrich, cat. A9165), 10 mM nicotinamide (Sigma-Aldrich, cat. N0636), 1X B-27 supplement (Thermo Fisher Scientific, cat. 17504044), 1X N-2 supplement (Thermo Fisher Scientific, cat. 17502048), and 10 microM Y-27632 dihydrochloride (Tocris Bioscience, Bristol, United Kingdom, cat. 1254). The 624824-186-R-J2-PDC line was cultured in 6C/Colon 1B media, which includes all 6A media components plus 50 ng/mL human EGF recombinant protein (Thermo Fisher Scientific, cat. PHG0311). […]

[1] = curve of first compound, second compound 0.0316 µM
[2] = curve of first compound, second compound 0.1 µM
[3] = curve of first compound, second compound 0.316 µM
[4] = curve of first compound, second compound 1 µM
[5] = second compound 0.0316 µM, first compound 0.0316 µM
[6] = second compound 0.0316 µM, first compound 0.1 µM
[7] = second compound 0.0316 µM, first compound 0.316 µM
[8] = second compound 0.0316 µM, first compound 1 µM
[9] = second compound 0.0316 µM, first compound 3.16 µM
[10] = second compound 0.0316 µM, first compound 10 µM
[11] = second compound 0.1 µM, first compound 0.0316 µM
[12] = second compound 0.1 µM, first compound 0.1 µM
[13] = second compound 0.1 µM, first compound 0.316 µM
[14] = second compound 0.1 µM, first compound 1 µM
[15] = second compound 0.1 µM, first compound 3.16 µM
[16] = second compound 0.1 µM, first compound 10 µM
[17] = second compound 0.316 µM, first compound 0.0316 µM
[18] = second compound 0.316 µM, first compound 0.1 µM
[19] = second compound 0.316 µM, first compound 0.316 µM
[20] = second compound 0.316 µM, first compound 1 µM
[21] = second compound 0.316 µM, first compound 3.16 µM
[22] = second compound 0.316 µM, first compound 10 µM
[23] = second compound 1 µM, first compound 0.0316 µM
[24] = second compound 1 µM, first compound 0.1 µM
[25] = second compound 1 µM, first compound 0.316 µM
[26] = second compound 1 µM, first compound 1 µM
[27] = second compound 1 µM, first compound 3.16 µM
[28] = second compound 1 µM, first compound 10 µM
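Further: spheroids exposed to agents for 7 days before viability read.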
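Wherever viability, T/C is given: 100% = DMSO vehicle treated spheroids.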

SMILES: CCCS(=O)(=O)Nc1ccc(F)c(C(=O)c2c[nH]c3ncc(-c4ccc(Cl)cc4)cc23)c1F + COc1c(OCCCN2CCOCC2)ccc2c3n(c(=NC(=O)c4cnc(N)nc4)nc12)CCN3
- IC50 (curve of first compound, second compound 0.00316 µM): 9.49 µM
- IC50 (curve of first compound, second compound 0.01 µM): 7.33 µM
- IC50 [1]: 2.2 µM
- IC50 [2]: 1.76 µM
- IC50 [3]: 0.178 µM
- IC50 [4]: 0.111 µM
- viability, T/C (second compound 0.00316 µM, first compound 0.0316 µM): 84.7%
- viability, T/C (second compound 0.00316 µM, first compound 0.1 µM): 95.8%
- viability, T/C (second compound 0.00316 µM, first compound 0.316 µM): 79.4%
- viability, T/C (second compound 0.00316 µM, first compound 1 µM): 111%
- viability, T/C (second compound 0.00316 µM, first compound 3.16 µM): 123%
- viability, T/C (second compound 0.00316 µM, first compound 10 µM): 47.7%
- viability, T/C (second compound 0.01 µM, first compound 0.0316 µM): 81.5%
- viability, T/C (second compound 0.01 µM, first compound 0.1 µM): 95.2%
- viability, T/C (second compound 0.01 µM, first compound 0.316 µM): 82.3%
- viability, T/C (second compound 0.01 µM, first compound 1 µM): 87.4%
- viability, T/C (second compound 0.01 µM, first compound 3.16 µM): 82.1%
- viability, T/C (second compound 0.01 µM, first compound 10 µM): 38%
- viability, T/C [5]: 84.2%
- viability, T/C [6]: 64.8%
- viability, T/C [7]: 61.6%
- viability, T/C [8]: 55.6%
- viability, T/C [9]: 60.6%
- viability, T/C [10]: 30.2%
- viability, T/C [11]: 65.3%
- viability, T/C [12]: 54.4%
- viability, T/C [13]: 50%
- viability, T/C [14]: 48.1%
- viability, T/C [15]: 49.8%
- viability, T/C [16]: 21.4%
- viability, T/C [17]: 64.3%
- viability, T/C [18]: 51%
- viability, T/C [19]: 42.8%
- viability, T/C [20]: 37.9%
- viability, T/C [21]: 39.5%
- viability, T/C [22]: 18.6%
- viability, T/C [23]: 56.5%
- viability, T/C [24]: 50.1%
- viability, T/C [25]: 44.2%
- viability, T/C [26]: 35.4%
- viability, T/C [27]: 35.1%
- viability, T/C [28]: 20.6%

SMILES: Cc1nc(NC(=O)N2CCCC2C(N)=O)sc1-c1ccnc(C(C)(C)C(F)(F)F)c1 (configuration not stated)
- viability, T/C (compound 0.1 µM): 83.4% [middle of 8 runs]
- viability, T/C (compound 10 µM): 80.8% [middle of 8 runs]
- IC50 (compound alone, run of 06/12/2023): > 10 µM

SMILES: CC1(C)CCC(CN2CCN(c3ccc(C(=O)NS(=O)(=O)c4ccc(NCC5CCOCC5)c([N+](=O)[O-])c4)c(Oc4cnc5[nH]ccc5c4)c3)CC2)=C(c2ccc(Cl)cc2)C1 + CC(Nc1ncnc2nc[nH]c12)c1cc2cccc(Cl)c2c(=O)n1-c1ccccc1
- IC50 [1]: > 10 µM
- IC50 [2]: > 10 µM
- IC50 [3]: > 10 µM
- IC50 [4]: > 10 µM
- IC50 (curve of first compound, second compound 3.16 µM): > 10 µM
- IC50 (curve of first compound, second compound 10 µM): > 10 µM
- viability, T/C [5]: 89.4%
- viability, T/C [6]: 98.6%
- viability, T/C [7]: 77.3%
- viability, T/C [8]: 81.7%
- viability, T/C [9]: 71.6%
- viability, T/C [10]: 58.4%
- viability, T/C [11]: 103%
- viability, T/C [12]: 90.7%
- viability, T/C [13]: 91.1%
- viability, T/C [14]: 67.6%
- viability, T/C [15]: 67.2%
- viability, T/C [16]: 58.2%
- viability, T/C [17]: 88.3%
- viability, T/C [18]: 90.7%
- viability, T/C [19]: 68.4%
- viability, T/C [20]: 79.2%
- viability, T/C [21]: 63.1%
- viability, T/C [22]: 79%
- viability, T/C [23]: 86.3%
- viability, T/C [24]: 92.3%
- viability, T/C [25]: 80.2%
- viability, T/C [26]: 66.5%
- viability, T/C [27]: 77%
- viability, T/C [28]: 80.4%
- viability, T/C (second compound 3.16 µM, first compound 0.0316 µM): 88.5%
- viability, T/C (second compound 3.16 µM, first compound 0.1 µM): 106%
- viability, T/C (second compound 3.16 µM, first compound 0.316 µM): 73%
- viability, T/C (second compound 3.16 µM, first compound 1 µM): 78.9%
- viability, T/C (second compound 3.16 µM, first compound 3.16 µM): 86%
- viability, T/C (second compound 3.16 µM, first compound 10 µM): 106%
- viability, T/C (second compound 10 µM, first compound 0.0316 µM): 103%
- viability, T/C (second compound 10 µM, first compound 0.1 µM): 102%
- viability, T/C (second compound 10 µM, first compound 0.316 µM): 108%
- viability, T/C (second compound 10 µM, first compound 1 µM): 82.2%
- viability, T/C (second compound 10 µM, first compound 3.16 µM): 92.2%
- viability, T/C (second compound 10 µM, first compound 10 µM): 87%
